Converted amounts (≈) assume the structure as drawn. The source made the active and inactive calls. No cut-off for these calls is given here.
Tests used:
[1] = system: Mycobacteroides chelonae; assay: Antibacterial activity against Mycobacteroides chelonae ATCC 35752 incubated for 3 days by microplate alamar blue assay; type: functional; conditions: ATCC 35752, 72 h, time 3 day
[2] = system: Candida albicans; assay: Antifungal activity against Candida albicans by microplate alamar blue assay; type: functional
[3] = system: Mycobacterium tuberculosis; assay: Synergistic antitubercular activity against Mycobacterium tuberculosis H37Rv assessed as rifampin MIC=>90 at 0.4 ug/ml by microplate alamar blue assay (reference value: 0.06 uM); type: functional; conditions: dose 0.4 µg/ml
[4] = system: Klebsiella aerogenes; assay: Antibacterial activity against Enterobacter aerogenes by microplate alamar blue assay; type: functional
[5] = system: Mycobacterium kansasii; assay: Antibacterial activity against Mycobacterium kansasii ATCC 12478 incubated for 7 days by microplate alamar blue assay; type: functional; conditions: ATCC 12478, 168 h, time 7 day
[6] = system: Mitochondrial membrane; assay: Induction of […] membrane potential loss in Mycobacterium tuberculosis H37Rv at <=MIC measured after 15 mins by DiOC2 dye based fluorescence assay; type: cell membranes
[7] = Cytotoxicity against African green monkey Vero cells measured after 3 days by resazurin dye based fluorescence assay; type: toxicity, cell-based; conditions: African green monkey (Chlorocebus sabaeus)
[8] = system: Pseudomonas aeruginosa; assay: Antibacterial activity against Pseudomonas aeruginosa by microplate alamar blue assay; type: functional
[9] = system: Mycobacterium marinum; assay: Antibacterial activity against Mycobacterium marinum ATCC 927 incubated for 5 days by microplate alamar blue assay; type: functional; conditions: ATCC 927, 120 h, time 5 day
[10] = system: Mycobacterium tuberculosis; assay: Synergistic antitubercular activity against Mycobacterium tuberculosis H37Rv assessed as isoniazid MIC=>90 at 0.4 ug/ml by microplate alamar blue assay (reference value: 0.12 uM); type: functional; conditions: dose 0.4 µg/ml
[11] = system: Staphylococcus aureus; assay: Antibacterial activity against Staphylococcus aureus by microplate alamar blue assay; type: functional
[12] = system: Enterococcus faecium; assay: Antibacterial activity against Enterococcus faecium by microplate alamar blue assay; type: functional
[13] = system: Mycobacterium tuberculosis; assay: Antitubercular activity against Mycobacterium tuberculosis KMA 1354 by microplate alamar blue assay; type: functional
[14] = system: Mycobacteroides chelonae; assay: Antibacterial activity against Mycobacteroides chelonae ATCC 35752 assessed as growth inhibition at 100 ug/ml incubated for 3 days by microplate alamar blue assay relative to control; type: functional; conditions: ATCC 35752, 72 h, time 3 day, read-out: GI
[15] = system: Mycobacterium tuberculosis; assay: Synergistic antitubercular activity against Mycobacterium tuberculosis H37Rv in presence of bedaquiline by microplate alamar blue assay (reference value: 2.59 uM); type: functional
[16] = system: Mycobacterium tuberculosis; assay: Antitubercular activity against Mycobacterium tuberculosis H37Rv assessed as post antibiotic affect up to 100 ug/ml measured daily for up to 14 days by luminescence assay; type: functional, organism-based; conditions: dose <= 100.0 µg/ml, time <= 14.0 day
[17] = system: Mycobacterium avium; assay: Antibacterial activity against Mycobacterium avium ATCC 15769 assessed as growth inhibition at 100 ug/ml incubated for 6 days by microplate alamar blue assay relative to control; type: functional; conditions: ATCC 15769, 144 h, time 6 day, read-out: GI
[18] = system: Mitochondrial membrane; assay: Induction of […] membrane potential loss in Mycobacterium tuberculosis H37Rv at <=MIC measured after 24 hrs by DiOC2 dye based fluorescence assay; type: cell membranes
[19] = system: Mycobacterium tuberculosis; assay: Antitubercular activity against Mycobacterium tuberculosis KMA 3899 by microplate alamar blue assay; type: functional
[20] = system: Mycobacterium tuberculosis; assay: Bactericidal activity against Mycobacterium tuberculosis H37Rv measured up to 7 days by luminescence assay; type: functional; conditions: time <= 7 day
[21] = system: Mycobacterium marinum; assay: Antibacterial activity against Mycobacterium marinum ATCC 927 assessed as growth inhibition at 100 ug/ml incubated for 5 days by microplate alamar blue assay relative to control; type: functional; conditions: ATCC 927, 120 h, time 5 day, read-out: GI
[22] = system: Acinetobacter baumannii; assay: Antibacterial activity against Acinetobacter baumannii by microplate alamar blue assay; type: functional
[23] = system: Mycobacterium tuberculosis; assay: Synergistic antitubercular activity against Mycobacterium tuberculosis H37Rv assessed as bedaquiline MIC=>90 at 0.4 ug/ml by microplate alamar blue assay (reference value: 0.05 uM); type: functional; conditions: dose 0.4 µg/ml
[24] = system: Mycobacterium tuberculosis; assay: Antitubercular activity against Mycobacterium tuberculosis KMA 4439 by microplate alamar blue assay; type: functional
[25] = system: Mycobacterium tuberculosis; assay: Antitubercular activity against Mycobacterium tuberculosis KMA 5282 by microplate alamar blue assay; type: functional
[26] = system: Mycobacterium tuberculosis; assay: Synergistic antitubercular activity against Mycobacterium tuberculosis H37Rv in presence of rifampin by microplate alamar blue assay (reference value: 2.59 uM); type: functional
[27] = system: Mycobacteroides abscessus; assay: Antibacterial activity against Mycobacterium abscessus ATCC 19977 assessed as growth inhibition at 100 ug/ml incubated for 3 days by microplate alamar blue assay relative to control; type: functional; conditions: ATCC 19977, 72 h, time 3 day, read-out: GI
[28] = system: Mycobacterium tuberculosis; assay: Synergistic antitubercular activity against Mycobacterium tuberculosis H37Rv in presence of isoniazid by microplate alamar blue assay (reference value: 2.59 uM); type: functional
[29] = system: Mycobacterium tuberculosis; assay: Antitubercular activity against Mycobacterium tuberculosis KMA 4244 by microplate alamar blue assay; type: functional
[30] = system: Klebsiella pneumoniae; assay: Antibacterial activity against Klebsiella pneumoniae by microplate alamar blue assay; type: functional
[31] = system: Mycobacterium kansasii; assay: Antibacterial activity against Mycobacterium kansasii ATCC 12478 assessed as growth inhibition at 100 ug/ml incubated for 7 days by microplate alamar blue assay relative to control; type: functional; conditions: ATCC 12478, 168 h, time 7 day, read-out: GI
[32] = system: Mycobacterium avium; assay: Antibacterial activity against Mycobacterium avium ATCC 15769 incubated for 6 days by microplate alamar blue assay; type: functional; conditions: ATCC 15769, 144 h, time 6 day
[33] = system: Mycobacterium tuberculosis; assay: Antitubercular activity against Mycobacterium tuberculosis H37Rv ATCC 27294 by microplate alamar blue assay; type: functional
[34] = system: Mycobacterium tuberculosis; assay: Antitubercular activity against Mycobacterium tuberculosis H37Rv by microplate alamar blue assay; type: functional
[35] = system: Mycobacteroides abscessus; assay: Antibacterial activity against Mycobacterium abscessus ATCC 19977 incubated for 3 days by microplate alamar blue assay; type: functional; conditions: ATCC 19977, 72 h, time 3 day
[36] = system: Mycobacterium tuberculosis; assay: Synergistic antitubercular activity against Mycobacterium tuberculosis H37Rv in presence of bedaquiline by microplate alamar blue assay (reference value: 3.08 uM); type: functional
[37] = system: Mycobacterium tuberculosis; assay: Synergistic antitubercular activity against Mycobacterium tuberculosis H37Rv assessed as isoniazid MIC=>90 at 0.8 ug/ml by microplate alamar blue assay (reference value: 0.12 uM); type: functional; conditions: dose 0.8 µg/ml
[38] = system: Mycobacterium tuberculosis; assay: Synergistic antitubercular activity against Mycobacterium tuberculosis H37Rv assessed as bedaquiline MIC=>90 at 0.8 ug/ml by microplate alamar blue assay (reference value: 0.05 uM); type: functional; conditions: dose 0.8 µg/ml
[39] = system: Mycobacterium tuberculosis; assay: Synergistic antitubercular activity against Mycobacterium tuberculosis H37Rv in presence of rifampin by microplate alamar blue assay (reference value: 3.08 uM); type: functional
[40] = system: Mycobacterium tuberculosis; assay: Synergistic antitubercular activity against Mycobacterium tuberculosis H37Rv in presence of isoniazid by microplate alamar blue assay (reference value: 3.08 uM); type: functional
[41] = system: Mycobacterium tuberculosis; assay: Synergistic antitubercular activity against Mycobacterium tuberculosis H37Rv assessed as rifampin MIC=>90 at 0.8 ug/ml by microplate alamar blue assay (reference value: 0.06 uM); type: functional; conditions: dose 0.8 µg/ml

SMILES | MIC90 [1] | MIC90 [2] | MIC90 [4] | MIC90 [5] | Activity [6] | IC50 at 3 days [7] | MIC90 [8] | MIC90 [9] | MIC90 [11] | MIC90 [12] | MIC90 [13] | inhibition of growth at 100 µg/mL [14] | Activity [16] | inhibition of growth at 100 µg/mL [17] | Activity [18] | MIC90 [19] | MBC99 [20] | inhibition of growth at 100 µg/mL [21] | MIC90 [22] | MIC90 [24] | also measured
CC(C)N(C(=O)CCNCCCC1CCCC1)C(C)C | > 100 µg/mL | 49.6 µg/mL (≈ 176 µM) | > 100 µg/mL | > 100 µg/mL | inactive | 69.7 µM | > 100 µg/mL | > 100 µg/mL | 48.1 µg/mL (≈ 170 µM) | 49.2 µg/mL (≈ 174 µM) | 1.8 µg/mL (≈ 6.37 µM) | 18% | inactive | 0% | inactive | 1.54 µg/mL (≈ 5.45 µM) | 3020 µg/mL (≈ 10700 µM) | 26% | > 100 µg/mL | 3.11 µg/mL (≈ 11 µM) | MIC [3]: 0.03 µM; MIC [10]: 0.12 µM; MIC [15]: 2.33 µg/mL; MIC [23]: 0.04 µM; MIC90 [25]: 4.37 µg/mL (≈ 15.5 µM); MIC [26]: 1.38 µg/mL; inhibition of growth at 100 µg/mL [27]: 0%; MIC [28]: 2.45 µg/mL; MIC90 [29]: 2.92 µg/mL (≈ 10.3 µM); MIC90 [30]: > 100 µg/mL; inhibition of growth at 100 µg/mL [31]: 0%; MIC90 [32]: > 100 µg/mL; MIC90 [33]: 1.48 µg/mL (≈ 5.24 µM); MIC90 [34]: 1.48 µg/mL (≈ 5.24 µM); MIC90 [35]: > 100 µg/mL
CC(C)N(C(=O)CCNCCC(c1ccccc1)c1ccccc1)C(C)C | > 100 µg/mL | > 100 µg/mL | > 100 µg/mL | > 100 µg/mL | inactive | 45.9 µM | > 100 µg/mL | > 100 µg/mL | 96.5 µg/mL (≈ 263 µM) | 95.8 µg/mL (≈ 261 µM) | 4.58 µg/mL (≈ 12.5 µM) | 74% | inactive | 0% | inactive | 4.68 µg/mL (≈ 12.8 µM) | 5480 µg/mL (≈ 15000 µM) | 90% | > 100 µg/mL | 8.79 µg/mL (≈ 24 µM) | MIC [36]: 2.99 µg/mL; MIC [37]: 0.12 µM; MIC [38]: 0.03 µM; MIC90 [25]: 8.73 µg/mL (≈ 23.8 µM); inhibition of growth at 100 µg/mL [27]: 0%; MIC90 [29]: 6.11 µg/mL (≈ 16.7 µM); MIC90 [30]: > 100 µg/mL; MIC [39]: 2.01 µg/mL; inhibition of growth at 100 µg/mL [31]: 0%; MIC [40]: 3.06 µg/mL; MIC90 [32]: > 100 µg/mL; MIC [41]: 0.04 µM; MIC90 [33]: 3.11 µg/mL (≈ 8.48 µM); MIC90 [34]: 2.97 µg/mL (≈ 8.1 µM); MIC90 [35]: > 100 µg/mL
